The values below are quoted from earlier work in patent US9072314B2, “Carotenoid-containing compositions and methods” (Mead Johnson Nutrition Company, priority 2007, dated 2015).

Structures are written as SMILES.

Data set [1] relates to H. pylori strains. The note with it: strains in Japanese children, cited study.

On to `CC1=C(/C=C/C(C)=C/C=C/C(C)=C/C=C/C=C(C)/C=C/C=C(C)/C=C/C2=C(C)C(=O)C(O)CC2(C)C)C(C)(C)CC(O)C1=O` (stereo not shown) [Astaxanthin, astaxanthin], for which the “antioxidant capacity relative to Vitamin E” value (versus Vitamin E) is given as 100-500 times. The “antioxidant capacity relative to beta-carotene” value (versus beta-carotene) is given as 10 times.
Consider `CC[C@H]1OC(=O)[C@H](C)[C@@H](O[C@H]2C[C@@](C)(OC)[C@@H](O)[C@H](C)O2)[C@H](C)[C@@H](O[C@@H]2O[C@H](C)C[C@H](N(C)C)[C@H]2O)[C@](C)(OC)C[C@@H](C)C(=O)[C@H](C)[C@@H](O)[C@]1(C)O` [clarithromycin], for which the “H. pylori strains tested that were resistant” value in data set [1] is reported as 29%.
Turning to `Cc1ncc([N+](=O)[O-])n1CCO` [metronidazole], the “H. pylori strains tested that were resistant” value in data set [1] was 24%.
